Data as given in patent US20230123148A1, “TARGETING QUORUM-SENSING PEPTIDES FOR DIAGNOSIS, TREATMENT AND/OR PREVENTION OF COLORECTAL CANCER METASTASIS” (UNIVERSITEIT GENT, priority 2020, published 2023).

Legend:
[1] = biological target: T1, CXCR4 receptor (Homo sapiens, UniProt P61073); test: Antagonism of the E-cadherin reducing effect of QSP76 (Western blot, HCT-8 cells); format: cell-based; details: for relative E-cadherin expression: PBS = 100%
T1 construct: endogenous in cells; host or cells: luciferase transfected HCT-8/E11 cells
T1 sequence (P61073 whole entry): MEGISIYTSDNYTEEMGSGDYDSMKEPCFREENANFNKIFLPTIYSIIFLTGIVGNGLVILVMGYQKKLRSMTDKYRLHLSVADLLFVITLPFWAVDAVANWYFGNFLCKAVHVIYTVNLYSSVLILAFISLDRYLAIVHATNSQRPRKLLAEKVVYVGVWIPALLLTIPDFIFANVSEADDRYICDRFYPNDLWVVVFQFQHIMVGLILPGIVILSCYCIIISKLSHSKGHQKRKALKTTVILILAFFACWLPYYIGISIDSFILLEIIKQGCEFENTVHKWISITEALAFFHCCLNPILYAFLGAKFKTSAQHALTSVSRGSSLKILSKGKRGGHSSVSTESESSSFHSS
Experimental: Western Blot analyses. 1×10^6 luciferase transfected HCT-8/E11 cells were seeded in each well of a 6-well plate. […] After 24 hours, cells were detached from the surface and lysed with Thermo Scientific RIPA-buffer. The protein concentration was then determined using the modified Lowry protein assay kit, according to the manufacturer's instructions. All samples were diluted to the same concentration (i.e. 4 μg/μL) using water and diluted 1:1 using 2× Laemmli buffer. Next, the samples were boiled for 5 min at 95° C. for denaturation, after which centrifugation for 5 min at 16,000 g was performed; the supernatant was then used for Western blot analyses. Therefore, proteins (20 μg) were separated using a Bio-Rad Any kD gel (SDS-PAGE) and transferred to a PVDF membrane. Before the membranes were incubated with antibodies, non-specific binding sites were blocked using 5% skimmed milk solution (1 hour). Western blot was performed using an anti-E-cadherin (1/1000) antibody and incubated overnight at 4° C. Signal intensity was normalized against the total protein content in the lanes. Anti-rabbit-HRP antibody was used for detection (1/2000) (1 hour). Finally, the substrate (5 min) was added and the results were analyzed using the Bio-Rad ChemiDoc EZ imager and Image Lab software. TBS buffer with 0.05% Tween 20 was used for washing between the different steps.

[2] = tested on: HCT-8 CRC cells; details: cited from earlier work
[3] = tested on: luciferase transfected HCT-8/E11 cells; test: Orthotopic colorectal cancer mouse model; format: in vivo, female athymic nude mice (Swiss nu/nu)
Experimental: Orthotopic colorectal cancer mouse model. All in vivo experiments were performed according to the Ethical Committee principles of laboratory animal welfare and approved by our institute (Ghent University, Faculty of Medicine and Health Sciences, approval number ECD 17-90). Mice were maintained in a sterile environment with light, humidity and temperature control (light-dark cycle with light from 7:00 h to 17:00 h, temperature 21-25° C. and humidity 45-65%). Before the experiment, mice were allowed to acclimatize for a minimum of seven days.
Six-weeks old female athymic nude mice (Swiss nu/nu) were anesthetized and a small midline laparotomy executed to localize the caecum. The caecum was then gently exteriorized and luciferase transfected HCT-8/E11 cells (1×10^6 cells) in a volume of 20 μL serum-free DMEM medium with matrigel (1:1) injected into the caecal wall. Cells were previously treated with EntF* (10 nM, 100 nM or 1 μM), Phr0662 (100 nM) or with the vehicle (PBS) or positive control (Transforming Growth Factor α (TGFα), 0.1 μg mL^−1) solution for 5 days before they were implanted in the mice. The caecum was then carefully returned to the abdominal cavity and the laparotomy closed in two layers by sutures of PDS 6/0. Starting from the day after tumour cell injection, mice were daily treated by i.p. injection with vehicle (PBS, n=15), EntF* (10 nmol kg^−1, n=12; 100 nmol kg^−1, n=18; 1 μmol kg^−1, n=8), Phr0662 (100 nmol kg^−1, n=5) or positive control (Epidermal Growth Factor (EGF), 100 μg kg^−1, n=18) for 6 weeks. Once a week, mice were investigated for tumour growth and metastases using bioluminescent imaging with the IVIS Lumina II (Perkin Elmer, Belgium) after i.p. injection with 200 μL luciferin (150 mg kg^−1). After 6 weeks, mice were euthanized using cervical dislocation, followed by macroscopic evaluation of the liver, diaphragm, lungs, caecum, duodenum and peritoneum for the presence of tumour nodules. Liver and lung tissues were then fixed in formalin during 24 h and stored in 70% ethanol for max. 3 days before embedding in paraffin. Afterwards, a haematoxylin & eosin (H&E) staining was performed on 8 μm sections and 3 sections were visualized per mouse using microscopy. The slides of all tumour-bearing mice were scored by two blinded, independent investigators using a scoring system. In the case of a difference in scoring, the slide was scored again by a third blinded, independent investigator for consensus.
Statistical analyses. The Kolmogorov-Smirnov test was used to assess if data obtained were normally distributed. For sample sizes of n<10, non-parametric tests (Mann-Whitney U test) were performed directly. Slope comparison was based on linear regression analysis. Bootstrapped medians and Hedges G-values were used to calculate the effect size.

[4] = after 6 weeks daily i.p. treatment

With “ANLVECVFSLFKKCN (QSP76S1A) [EntF* antagonist]” the “antagonistic effect on the in vitro pro-metastatic (E-cadherin reducing) effect of QSP76” value ([1]; HCT-8 cells) was “reduces”, the “relative E-cadherin expression” value ([1]; mixture of antagonist with 5 μM EntF* (QSP76), HCT-8 cells) was 91.8% and the “Cohen's d effect size of normalisation in E-cadherin expression” value ([1]; mixture with QSP76 versus QSP76 alone) was 0.77.
For ERNNT [Phr0662], the “promotion of angiogenesis and/or tumour cell invasion in vitro” value [2] is listed as “promote in vitro cell invasion” and the “in vivo metastasis-promoting effect” value ([3]; daily i.p. for 6 weeks) is listed as “no in vivo metastasis-promoting effects”.
In the case of Epidermal Growth Factor [EGF], the “bioluminescence, Bootstrapped median difference (effect size, increase vs PBS)” value [3, 4] is reported as 316%, the “bioluminescence, Hedges' g value (vs PBS)” value [3, 4] is reported as 0.7 and the “bioluminescence, Median” value [3, 4] is reported as 630. For the same substance, the “increase in the number of nodules on the caecum compared to PBS” value ([3]; after 6 weeks treatment) was 4.5 fold, the “number of nodules on the caecum, Hedges' g value (vs PBS)” value ([3]; after 6 weeks treatment) was 0.8 and the “number of nodules on the caecum, Median” value ([3]; after 6 weeks treatment) was 14. For the same substance, the “number of nodules on the caecum, Bootstrapped median difference” value ([3]; after 6 weeks treatment, vs PBS) was 9 and the “tumour growth (luciferase activity, bioluminescent imaging) compared to vehicle” value ([3]; weekly imaging during 6 weeks, linear regression slope comparison) was “significant increase of tumour growth”.
In the case of “SNLVECVFSLFKKCN (SNLVECVFSLKKCN; EntF metabolite) [EntF*]”, the “relative E-cadherin expression” value ([1]; QSP76 alone, HCT-8 cells) is reported as 66.0%.
